Tests used:
[1] = test system: exosomes derived from human breast cancer cells (MM231-luc-D3H2LN) in human peripheral blood sample; conditions: […]10^10 particles/mL exosomes, 100 μM magainin 2 or 8% phenol, 25° C., 24 hours
Protocol: The exosome fraction A prepared from the cell line MM231-luc-D3H2LN derived from human breast cancer cells was added to a peripheral blood sample collected from a healthy person with no cancer (hereinafter will be also referred to as human peripheral blood sample) so as to become an exosome concentration of an actual cancer patient, and thereby an artificial sample of a human peripheral blood of the cancer patient was produced. The human peripheral blood sample was obtained after procurement of the patient informed consent according to the Declaration of Helsinki, similarly to the method described in Japanese Unexamined patent publication No. 2013-198483, for example. Blood was drawn using a blood collection tube containing an anticoagulant.
Using a part of the incubated solution, the exosomes were purified with Exo-Flow32 CD9 IP Kit (manufactured by SBI), and then the number of exosomes in the solution was measured using the nanoparticle analyzer (NanoSight LM10; manufactured by NanoSight, Ltd.). […] In addition, a part of the incubated solution was subjected to the serum component protein electrophoresis.

[2] = test system: exosomes derived from cancer cells; test: Preliminary examination of destructive ability of anticancer peptides against exosomes derived from cancer cells; type: biochemical
Excerpt: Specifically, the present inventors have come to realize the following knowledge.

[3] = test system: exosome fraction B derived from human breast cancer cells (MDA-MB-231-luc-D3H2LN); test: Extraction of microRNA (miR-21) from exosomes derived from human breast cancer cells, real-time PCR; type: biochemical; conditions: 100 μM peptide, 1×10^11 particles/mL exosomes, 0.4 U/μL RNase inhibitor, 37° C., 24 hours; without peptide 8×10^−14M
Protocol: (§1) A cell suspension of cell line MDA-MB-231-luc-D3H2LN derived from human breast cancer (=MM231-luc-D3H2LN, provided by the National Cancer Center Research Institute) was seeded in a dish containing RPMI 1640 medium (manufactured by Thermo Fisher Scientific Inc.) containing 10% fetal bovine serum. Subsequently, the cell line was grown at 37° C. under the condition that CO2 concentration was set to 5 volume % using a CO2 incubator, and then the medium was replaced with Advanced RPMI 1640 medium (manufactured by Thermo Fisher Scientific Inc.), followed by culturing for 48 hours, and therefore the culture solution containing exosomes was obtained. This culture solution was centrifuged at 2,000 G for 10 minutes to remove the precipitate, followed by centrifugation at 110,000 G for 70 minutes to precipitate the exosomes, and therefore an exosome fraction B was recovered. The recovered exosome fraction B was suspended in a phosphate buffered saline (PBS) and then stored at 4° C. Storage samples were lightly suspended with a vortex mixer (vibration mixer) before use.
(§2) MicroRNA (miR-21 or miR-16) in the reaction solution was subjected to reverse transcription PCR using reverse transcription primers (manufactured by Thermo Fisher Scientific Inc., Taqman microRNA Assays, RT primers, and hsa-mir-21 or hsa-mir-16) and a reverse transcriptase (manufactured by Thermo Fisher Scientific Inc., Taqman microRNA RT kit).
(§3) The reverse transcription PCR solution obtained by the above described method was processed and by comparing the number of cycles on a calibration curve of microRNA using Taqman Assay primer (manufactured by Thermo Fisher Scientific Inc., Taqman microRNA Assays, Taqman Assay primer, and hsa-mir-21 or hsa-mir-16) and Real-Time PCR Master Mixes (manufactured by Thermo Fisher Scientific Inc., TaqMan Universal PCR Master Mix II, w/UNG) with StepOnePlus Real-Time PCR System, MiR-21 or miR-16 was quantified. The calibration curve of microRNA was created using synthetic miR-21 (manufactured by Sigma-Aldrich Co. LLC.) or synthetic miR-16 (manufactured by Sigma-Aldrich Co. LLC.).
(§4) 10 μL of the exosome fraction was prepared such that PBS contains 1×10^11 particles/mL of the exosome fraction B derived from human breast cancer cells, various antimicrobial peptides shown in the following Table 2 adjusted to 100 μM, and 0.4 U/μL of RNase inhibitor (manufactured by Toyobo Co., Ltd.), followed by incubation by being left to stand at 37° C. for 24 hours.
MicroRNA eluted into the solution was purified and recovered from the incubated solution of Example 10 above and Comparative Example 6 above by the following method.
First, 160 μL of PBS was added to the reaction solution, and then the solution was added to a centrifugal filter (manufactured by Millipore Corporation, Amicon Ultra 0.5 mL, 100K filter) and centrifuged at 14,000 G for 2 minutes. Subsequently, 100 μL of the centrifuged filtrate was recovered and introduced into a 1.5 mL tube. Next, 350 μL of RLT buffer (manufactured by QIAGEN, attached with RNeasy mini kit) and 675 μL of ethanol were added and mixed in the 1.5 mL tube. The obtained mixture was separated into two parts, and each of the separates was added onto a spin column (manufactured by QIAGEN, attached with RNeasy mini kit) followed by centrifugation at 8,000 G for 15 seconds, and the entire amount of the mixture was passed through the spin column. Thereafter, 500 μL of RPE buffer (manufactured by QIAGEN, attached with RNeasy mini kit) was added thereto and centrifuged at 8,000 G for 15 seconds. Furthermore, 500 μL of the RPE buffer was added to the spin column once more and centrifuged at 8,000 G for 15 seconds. Thereafter, the spin column was centrifuged at 14,000 G for 1 minute to remove the residual RPE buffer. Next, 30 μL of RNase free water (manufactured by QIAGEN, attached with RNeasy mini kit) was added to the spin column, left for 1 minute, and then centrifuged at 14,000 G for 1 minute, and the eluate obtained thereby was recovered. […]

[4] = test system: exosome derived from human prostate cancer cells (PC3ML); test: Extraction of microRNA (miR-21) from exosome derived from prostate cancer cells, real-time PCR; type: biochemical; conditions: 100 μM peptide, 1×10^11 particles/mL PC3ML exosomes, 0.4 U/μL RNase inhibitor, 37° C., 24 hours; without peptide 3×10^−14M
Protocol: A cell suspension of cell line PC3ML derived from human prostate cancer cells (provided by the National Cancer Center Research Institute) was seeded in a dish containing RPMI 1640 medium (manufactured by Thermo Fisher Scientific Inc.) containing 10% fetal bovine serum. Subsequently, the cell line was grown at 37° C. under the condition that CO2 concentration was set to 5 volume % using a CO2 incubator, and then the medium was replaced with Advanced RPMI 1640 medium (manufactured by Thermo Fisher Scientific Inc.), followed by culturing for 48 hours, and the culture solution containing exosomes was obtained. This culture solution was centrifuged at 2,000 G for 10 minutes to remove the precipitate, followed by centrifugation at 110,000 G for 70 minutes to precipitate the exosomes, and therefore an exosome fraction was recovered. The recovered exosome fraction was suspended in a phosphate buffered saline (PBS) and then stored at 4° C. Storage samples were lightly suspended with a vortex mixer (vibration mixer) before use. […]
as §3, with “The calibration curve of microRNA was created using synthetic miR-21 (manufactured by Sigma-Aldrich Co. LLC.) or synthetic miR-16 (manufactured by Sigma-Aldrich Co. LLC.).” left out
The amount of microRNA (miR-21) contained in the recovered eluate was quantified by the above described real-time PCR method. […] In addition, the destructive activity of the antimicrobial peptide used was evaluated on the basis of the following criteria based on the quantitative result of the concentration of microRNA (miR-21) performed by the real-time PCR method. […]

[5] = test system: exosome fraction A prepared from the cell line MM231-luc-D3H2LN derived from human breast cancer cells; test: Destruction of exosomes in PBS, number of exosomes by nanoparticle analyzer (NanoSight LM10); type: biochemical; conditions: 50 μM peptide, 1.36×10^10 particles/mL exosomes in PBS, 25° C., 48 hours
Excerpt: Storage samples were lightly suspended with a vortex mixer (vibration mixer) before use.

[6] = test system: exosome fraction B derived from human breast cancer cells versus exosome fraction derived from human mammary gland cells (MCF-10A, normal cells); test: Selectivity: miR-16 ratio, breast cancer exosomes versus mammary gland normal cell exosomes (Formula 1); type: biochemical; conditions: for mir-16 ratio: Formula 1, cancer/normal (MCF-10A), 100 μM peptide, 37° C., 24 hours; for Selectivity: from miR-16 ratio versus Comparative Example 8, breast cancer vs MCF-10A exosomes
Protocol: as §1
A cell suspension of cell line MCF 10A derived from human mammary epithelial cells (provided by the National Cancer Center Research Institute) was seeded in a dish containing Mammary Epithelium Cell Basal Medium (manufactured by Lonza). Subsequently, the cell line was grown at 37° C. under the condition that CO2 concentration was set to 5 volume % using a CO2 incubator, and then the medium was replaced with a fresh medium, followed by culturing for 48 hours, and the culture solution containing exosomes was obtained. This culture solution was centrifuged at 2,000 G for 10 minutes to remove the precipitate, followed by centrifugation at 110,000 G for 70 minutes to precipitate the exosomes, and an exosome fraction was recovered. The recovered exosome fraction was suspended in a phosphate buffered saline (PBS) and then stored at 4° C. Storage samples were lightly suspended with a vortex mixer (vibration mixer) before use.
as §2, §3
as §4, with “Table 4” for “Table 2”
Thereafter, the eluted MicroRNA (miR-16) was purified and recovered from the incubated solution by the same method as the above described method for extraction from the incubated solution of Examples 10 and 11 above and Comparative Examples 6 and 7 above. […]

Compound | Destructive activity (concentration of microRNA miR-21 in eluate) [3] | mir-16 ratio [6] | Selectivity [6] | other results
Oc1ccccc1 [Comparative Example 2, phenol, reference compound] | – | – | – | exosome amount compared to Comparative Example 3 (no additive) [1]: decreased
A6K: amino acid sequence AAAAAAK (Ac-AAAAAAK-NH2) | D (the concentration of microRNA is less than 10×10^−14M) | – | – | destructive ability against the exosomes derived from cancer cells [2]: no or a low level
Hepcidin TH2-3 | D (the concentration of microRNA is less than 10×10^−14M) | – | – | destructive ability against the exosomes derived from cancer cells [2]: no or a low level
K6L9 (LKLLKKLLKKLLKLL) | B (the concentration of microRNA is 10×10^−14M to 50×10^−14M) | – | – | Destructive activity (concentration of microRNA miR-21 in eluate) [4]: A (the concentration of microRNA is 10×10^−14M or more)
LL-37 | A (the concentration of microRNA is 50×10^−14M or more) | 18 | B (evaluated as “B” in a case where the calculated miR-16 value was higher than the miR-16 ratio of Comparative Example 8) | number of exosomes in the solution [5]: 1.09×10^9 particles/mL
Lactoferricin [Example 4] | – | – | – | number of exosomes in the solution [5]: 7.47×10^9 particles/mL
Maximin 1 | B (the concentration of microRNA is 10×10^−14M to 50×10^−14M) | 22 | B (evaluated as “B” in a case where the calculated miR-16 value was higher than the miR-16 ratio of Comparative Example 8) | –
Maximin 4 | B (the concentration of microRNA is 10×10^−14M to 50×10^−14M) | 311 | B (evaluated as “B” in a case where the calculated miR-16 value was higher than the miR-16 ratio of Comparative Example 8) | –
Nisin [Example 3] | – | – | – | number of exosomes in the solution [5]: 4.51×10^9 particles/mL
PR-39 (RRRPRPPYLPRPRPPPFFPPRLPPRIPPGFPPRFPPRFP) | D (the concentration of microRNA is less than 10×10^−14M) | – | – | destructive ability against the exosomes derived from cancer cells [2]: no or a low level
Polybia-MPI | B (the concentration of microRNA is 10×10^−14M to 50×10^−14M) | – | – | Destructive activity (concentration of microRNA miR-21 in eluate) [4]: A (the concentration of microRNA is 10×10^−14M or more)
mCRAMP (GLLRKGGEKIGEKLKKIGQKIKNFFQKLVPQPEQ) | A (the concentration of microRNA is 50×10^−14M or more) | 9 | B (evaluated as “B” in a case where the calculated miR-16 value was higher than the miR-16 ratio of Comparative Example 8) | –
